Data on one compound can be found in patent publication US7566737B2 (Genfit, priority 2002, dated 2009).

Molecules are shown by their SMILES.

The experiment concerns the target T1, human PPARγ (Homo sapiens, UniProt P37231).
T1 construct: expressed in transfected cells; host or cells: RK13 or COS-7
T1 sequence (P37231 238-503 limits assumed): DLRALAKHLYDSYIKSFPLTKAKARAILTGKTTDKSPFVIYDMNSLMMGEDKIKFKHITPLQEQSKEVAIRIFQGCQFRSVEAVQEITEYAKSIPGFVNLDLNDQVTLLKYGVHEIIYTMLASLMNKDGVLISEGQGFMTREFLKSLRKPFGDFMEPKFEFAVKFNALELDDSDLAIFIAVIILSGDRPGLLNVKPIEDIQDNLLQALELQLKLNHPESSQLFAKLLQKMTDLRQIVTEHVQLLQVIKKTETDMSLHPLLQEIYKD
As to the kind of experiment: PPARγ/Gal4 transactivation system. The class given is cell-based. As to conditions: 10 μM. Here is the method: PPAR activation was tested in vitro in RK13 or COS-7 fibroblast cell lines by measuring the transcriptional activity of chimeras composed of the DNA binding domain of the yeast Gal4 transcription factor and the ligand binding domain of the different PPARs. These latter results were then confirmed in cell lines according to the following protocols.
Culture protocols: RK13 were from ECACC (Porton Down, UK) and were grown in DMEM medium supplemented with 10% (V/V) fetal calf serum, 100 U/ml penicillin (Gibco, Paisley, UK) and 2 mM L-glutamine (Gibco, Paisley, UK). COS-7 cells were from ATCC and were grown in DMEM medium supplemented with 10% (V/V) fetal calf serum, 1% penicillin/streptomycine (Biochrom, AG), 1% of amino acids (Gibco) and 1% sodium pyruvate (Gibco).
The culture medium was changed every two days. Cells were kept at 37° C. in a humidified 95% air/5% CO2 atmosphere.
Description of plasmids used for transfection: The plasmids Gal4(RE)_TkpGL3, pGal4-hPPARα, pGal4-hPPARγ, pGal4-hPPARδ and pGal4-φ have been described in the literature (Raspe E et al., 1999). The pGal4-hPPARα, pGal4-hPPARγ and pGal4-hPPARδ constructs were obtained by cloning into the pGal4-φ vector PCR-amplified DNA fragments corresponding to the DEF domains of the human PPARs nuclear receptors.
Transfection of RK13: RK13 cells were seeded in 24-well culture dishes at 5×10^4 cells/well and transfected for 2 hours with the reporter plasmid Gal4(RE)_TkpGL3 (50 ng/well), the expression vectors pGal4-φ, pGal4-hPPARα, pGal4-hPPARγ and pGal-hPPARδ (100 ng/well) and the transfection efficiency control vector pRL-CMV (1 ng/well) according to the previously described protocol (Raspe E, Madsen L, Lefebvre A M, Leitersdorf I, Gelman L, Peinado-Onsurbe J, Dallongeville J, Fruchart J C, Berge R and Staels B, 1999), then incubated for 36 hours with the test compounds. RK13 cells were incubated with the different compounds at concentrations of 10, 30 and 100 μM or 1, 10 and 100 μM for 24 hours. At the end of the experiment, the cells were lysed (Gibco, Paisley, UK) and luciferase activity was determined with a Dual-Luciferase™ Reporter Assay System kit (Promega, Madison, Wis., USA) according to the supplier's instructions. The protein content of the cell extracts was then measured with the Bio-Rad Protein Assay (Bio-Rad, Munich, Germany) as directed by the supplier.
Transfection of COS7: Cells in suspension are transfected, in the presence of 10% (V/V) fetal calf serum, with 150 ng of DNA per well with a pGal4-PPAR/Gal4(RE)_TkpGL3 ratio of 1/10. Cells are then seeded in 96 well plates (4×10^4 cells/well) and incubated for 24 hours at 37° C. Activation with compounds is performed on 24 hours at 37° C. in culture medium without serum. At the end of the activation period, cells are lysed and luciferase activity is determined, using the Steady Glow Luciferase Kit (Promega), according to the supplier's instructions.

The compound `CSc1ccc(C(=O)/C=C/c2cc(C)c(OC(C)(C)C(=O)O)c(C)c2)cc1` [Compound 29, 1-[4-methylthiophenyl]-3-[3,5-dimethyl-4-carboxydimethylmethyloxyphenyl]prop-2-en-1-one] had a maximum induction factor of 33.9.
